Experimental data as given in ChEMBL document CHEMBL1201862, “PubChem BioAssay data set” (2004).
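Interpolation was linear, between the two tested concentrations surrounding the appropriate level; five concentrations were tested over 48 hours in 96-well plates. GI50 is the concentration that inhibits growth by half.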 Calls of active or inactive are those of the source. Cut-off read from the data, not from the text of the source: active = GI50 up to about 1.1 µM and inactive = higher.

How the values were obtained:
Test in all cases: NCI tumour cell line growth inhibition, 48 h
HT-29 = test system: HT-29
K562 = test system: K562
786-0 = test system: 786-0
NCI-H23 = test system: NCI-H23
HCT-15 = test system: HCT-15
SF-268 = test system: SF-268
DMS-114 = test system: DMS-114
ACHN = test system: ACHN
OVCAR-8 = test system: OVCAR-8
MOLT-4 = test system: MOLT-4
NCI-H226 = test system: NCI-H226
SNB-19 = test system: SNB-19
HCT-116 = test system: HCT-116
HOP-62 = test system: HOP-62
Hs-578T = test system: Hs-578T
MDA-N = test system: MDA-N
PC-3 = test system: PC-3
NCI/ADR-RES = test system: NCI/ADR-RES
MDA-MB-231 = test system: MDA-MB-231
BT-549 = test system: BT-549

Row | Compound | GI50 (HT-29) | GI50 (K562) | GI50 (786-0) | GI50 (NCI-H23) | GI50 (HCT-15) [µM] | GI50 (SF-268) | GI50 (DMS-114) | GI50 (ACHN) | GI50 (OVCAR-8) | GI50 (MOLT-4) | GI50 (NCI-H226) | GI50 (SNB-19) | GI50 (HCT-116) | GI50 (HOP-62) | GI50 (Hs-578T) | GI50 (MDA-N) | GI50 (PC-3) | GI50 (NCI/ADR-RES) | GI50 (MDA-MB-231) | GI50 (BT-549)
1 | CCN(CC)CCNc1ccc(C)c2sc3ccc(O)cc3c(=O)c12 | 1.58 µM (inactive) | 0.832 µM (active) | 0.655 µM (active) | 1.2 µM (inactive) | 0.923 | 1.8 µM (inactive) | 0.982 µM (active) | 0.201 µM (active) | 1.37 µM (inactive) | < 0.012 µM (active) | 0.466 µM (active) | 1.82 µM (inactive) | 1.15 µM (inactive) | 0.274 µM (active) | – | – | – | – | – | –
2 | NC(CCCC(N)P(=O)(O)c1ccccc1)P(=O)(O)c1ccccc1 (configuration not stated) | > 261 µM (inactive) | > 261 µM (inactive) | > 261 µM (inactive) | > 261 µM (inactive) | > 261 | > 261 µM (inactive) | > 261 µM (inactive) | > 261 µM (inactive) | > 261 µM (inactive) | > 261 µM (inactive) | > 261 µM (inactive) | > 261 µM (inactive) | > 261 µM (inactive) | > 261 µM (inactive) | – | – | – | – | – | –
3 | Oc1nc(CC(O)c2ccc(Cl)c(Cl)c2)cc(-c2ccccc2)n1 (configuration not stated) | 40.5 µM (inactive) | 51.3 µM (inactive) | > 100 µM (inactive) | 71.9 µM (inactive) | 89.1 | 80.7 µM (inactive) | 38.9 µM (inactive) | > 100 µM (inactive) | > 100 µM (inactive) | 75.3 µM (inactive) | 55.8 µM (inactive) | 67.9 µM (inactive) | 49.8 µM (inactive) | > 100 µM (inactive) | – | – | – | – | – | –
4 | CCN1CCC(O)(/C=C/c2ccccc2)C(C(=O)/C=C/c2ccccc2)C1 (configuration not stated) | 1.76 µM (inactive) | – | 1.75 µM (inactive) | 2.93 µM (inactive) | 1.87 | 2.54 µM (inactive) | 2.08 µM (inactive) | 1.72 µM (inactive) | 1.89 µM (inactive) | 2.21 µM (inactive) | 3.02 µM (inactive) | 9.98 µM (inactive) | 1.63 µM (inactive) | 13.9 µM (inactive) | – | – | – | – | – | –
5 | COC(=O)c1ccc(/C=C/S(=O)(=O)c2ccccc2)cc1 | > 100 µM (inactive) | > 100 µM (inactive) | > 100 µM (inactive) | > 100 µM (inactive) | > 100 | > 100 µM (inactive) | > 100 µM (inactive) | > 100 µM (inactive) | > 100 µM (inactive) | > 100 µM (inactive) | > 100 µM (inactive) | > 100 µM (inactive) | > 100 µM (inactive) | > 100 µM (inactive) | – | – | – | – | – | –
6 | O=C1C(=O)C2(CC1S(=O)(=O)c1ccccc1)c1ccccc1-c1ccccc12 (configuration not stated) | 27 µM (inactive) | 27.6 µM (inactive) | 26.6 µM (inactive) | 15.5 µM (inactive) | 16.7 | 27.4 µM (inactive) | 22 µM (inactive) | 28.6 µM (inactive) | 17.9 µM (inactive) | 20.4 µM (inactive) | 37.4 µM (inactive) | 20.6 µM (inactive) | 17.3 µM (inactive) | 21.1 µM (inactive) | – | – | – | – | – | –
7 | Cc1ccc(C2[C@H]3C(=O)N(c4ccc(Cc5ccc(N6C(=O)[C@@H]7ON(c8ccccc8)C(c8ccc(C)cc8)[C@@H]7C6=O)cc5)cc4)C(=O)[C@H]3ON2c2ccccc2)cc1 (some centres not stated) | > 100 µM (inactive) | > 100 µM (inactive) | > 100 µM (inactive) | > 100 µM (inactive) | > 100 | > 100 µM (inactive) | > 100 µM (inactive) | > 100 µM (inactive) | – | > 100 µM (inactive) | > 100 µM (inactive) | – | – | > 100 µM (inactive) | – | – | – | – | – | –
8 | O=C(Nc1ccccc1SC(/C=C/NNC1=NN=C(c2ccccc2)C(c2ccccc2)N1)c1ccccc1)c1ccc(Cl)cc1Cl (configuration not stated) | > 100 µM (inactive) | 60.1 µM (inactive) | 37.9 µM (inactive) | 22.8 µM (inactive) | 36 | 35.6 µM (inactive) | 45.1 µM (inactive) | 82.8 µM (inactive) | 74.5 µM (inactive) | > 10 µM (inactive) | 31.4 µM (inactive) | 80 µM (inactive) | – | 27.3 µM (inactive) | – | – | – | – | – | –
9 | COc1ccc(NC(=O)CC(=O)N/N=C/c2ccc(N(CCC#N)S(C)(=O)=O)cc2)cc1 | > 100 µM (inactive) | > 100 µM (inactive) | > 100 µM (inactive) | > 100 µM (inactive) | > 100 | > 100 µM (inactive) | > 100 µM (inactive) | > 100 µM (inactive) | > 100 µM (inactive) | > 100 µM (inactive) | > 100 µM (inactive) | – | > 100 µM (inactive) | > 100 µM (inactive) | – | – | – | – | – | –
10 | CC1(C)N=C(N)N=C(N)N1c1ccc(CCCCc2ccc(S(=O)(=O)F)cc2Cl)c(Cl)c1 | 1.53 µM (inactive) | 0.425 µM (active) | 0.186 µM (active) | 4.07 µM (inactive) | 2.72 | 0.984 µM (active) | 0.458 µM (active) | 2.22 µM (inactive) | 4.46 µM (inactive) | 0.995 µM (active) | 18.5 µM (inactive) | 3.64 µM (inactive) | 1.03 µM (active) | 9.35 µM (inactive) | 74 µM (inactive) | 0.916 µM (active) | 1.11 µM (active) | 143 µM (inactive) | 10.5 µM (inactive) | 5.26 µM (inactive)
11 | c1cc2c(ncc3cscc32)s1 | > 100 µM (inactive) | > 100 µM (inactive) | > 100 µM (inactive) | > 68.4 µM (inactive) | > 100 | > 100 µM (inactive) | > 100 µM (inactive) | > 100 µM (inactive) | > 100 µM (inactive) | > 100 µM (inactive) | > 61.7 µM (inactive) | > 100 µM (inactive) | > 31.6 µM (inactive) | > 100 µM (inactive) | > 100 µM (inactive) | > 100 µM (inactive) | > 100 µM (inactive) | > 100 µM (inactive) | > 100 µM (inactive) | –
12 | CC(=O)O[C@]12CCCCC1C1(O)C(O)CCCC[C@H]12 (some centres not stated) | > 100 µM (inactive) | > 100 µM (inactive) | > 100 µM (inactive) | > 100 µM (inactive) | > 100 | > 100 µM (inactive) | > 100 µM (inactive) | > 100 µM (inactive) | > 100 µM (inactive) | > 100 µM (inactive) | > 100 µM (inactive) | > 100 µM (inactive) | > 100 µM (inactive) | > 100 µM (inactive) | – | – | – | – | – | –
13 | CCOC(=O)CCC(NC(=O)c1ccc(NCc2ccc3nc(-c4ccccc4)c(Cl)nc3c2)cc1)C(=O)OCC (configuration not stated) | > 100 µM (inactive) | 6.19 µM (inactive) | 80.7 µM (inactive) | 79.8 µM (inactive) | 64.1 | 53.8 µM (inactive) | 22.4 µM (inactive) | 37.9 µM (inactive) | – | 9.25 µM (inactive) | 32.4 µM (inactive) | 97.7 µM (inactive) | 40.7 µM (inactive) | > 100 µM (inactive) | – | – | – | – | – | –
14 | NC(=O)C(=O)N/N=C(\CC1(O)C(=O)Nc2ccccc21)c1ccc2ccccc2c1 (configuration not stated) | 34.4 µM (inactive) | 23.1 µM (inactive) | 36.5 µM (inactive) | 29.6 µM (inactive) | 24.5 | 40.9 µM (inactive) | 21.3 µM (inactive) | 32.9 µM (inactive) | 56 µM (inactive) | 20.9 µM (inactive) | 41.4 µM (inactive) | 22.9 µM (inactive) | 9.48 µM (inactive) | 51.2 µM (inactive) | – | – | – | – | – | –
15 | NC(=O)c1[nH]nc(C2OC(CO)C(O)C2O)c1O (configuration not stated) | 0.851 µM (active) | 0.5 µM (active) | 0.5 µM (active) | 9.59 µM (inactive) | 0.5 | 4.57 µM (inactive) | 19.9 µM (inactive) | 0.5 µM (active) | 0.5 µM (active) | 0.561 µM (active) | 181 µM (inactive) | 2.6 µM (inactive) | 0.548 µM (active) | 2.68 µM (inactive) | 94 µM (inactive) | 3.39 µM (inactive) | 3.02 µM (inactive) | 2.68 µM (inactive) | 8.59 µM (inactive) | 182 µM (inactive)
16 | Cc1cc(NS(=O)(=O)c2ccc(Nc3c4ccccc4nc4c(C(=O)NCCN(C)C)cccc34)cc2)no1 | 6.03 µM (inactive) | 2.69 µM (inactive) | 3.83 µM (inactive) | 4.46 µM (inactive) | 18.5 | 1.78 µM (inactive) | 0.713 µM (active) | 3.71 µM (inactive) | 4.18 µM (inactive) | 0.208 µM (active) | 0.524 µM (active) | 1.72 µM (inactive) | 4.79 µM (inactive) | 2.09 µM (inactive) | – | – | – | – | – | –
17 | C=CC1(C)CCC(C(C)C(=O)C(C=C(C)C)OC(C)=O)C12C(=O)Oc1ccccc1C2=O (configuration not stated) | 35.3 µM (inactive) | 31.6 µM (inactive) | 84.1 µM (inactive) | 46.7 µM (inactive) | 38.5 | 62.1 µM (inactive) | 26 µM (inactive) | 51.5 µM (inactive) | 37.6 µM (inactive) | 26.2 µM (inactive) | 58.5 µM (inactive) | > 100 µM (inactive) | 31.1 µM (inactive) | 35.2 µM (inactive) | – | – | – | – | – | –
18 | COC(=O)C1C(=O)O[C@@H](c2ccc(OC)cc2OC)C1C(=O)OC (some centres not stated) | > 100 µM (inactive) | > 100 µM (inactive) | > 100 µM (inactive) | > 100 µM (inactive) | > 100 | > 100 µM (inactive) | > 100 µM (inactive) | > 100 µM (inactive) | > 100 µM (inactive) | > 100 µM (inactive) | > 100 µM (inactive) | > 100 µM (inactive) | > 100 µM (inactive) | > 100 µM (inactive) | – | – | – | – | – | –
